The results in this text go back to patent publication US6514911B1, “Substituted oxadiazines useful as pesticides” (Uniroyal Chemical Company, Inc., priority 2002, dated 2003).

Assay type in all cases: in vivo
Experiment [1] relates to tall morningglory (Ipomoea purpurea (L.) Roth) (TM). The experiment can be described thus: Preemergence herbicide test, soil drench, tall morningglory. The note with it: 10 lbs/A (11.2 kg/ha) soil drench, two weeks after treatment, vs untreated checks; for pest or weed control at 11208.5 g/ha: Ipomoea, 336 h, read-out: Percent Weed Control TM. As to the method:
(§1) To illustrate the effectiveness of the previously described substituted oxadiazines of this invention as preemergence herbicides, 300 mg of the chemical was dissolved in a composition comprising 10 mL acetone to which 30 mg of tile emulsifying agent, ethoxylated sorbitan monolaurate, was added. The solution was diluted to 100 mL with distilled water. Ten milliliters of this 3000 ppm solution was diluted to 250 ppm with distilled water. The chemical was applied at the rate of 10 pounds/acre (11.2 kg/ha) by drenchings 46 mL of the 250 ppm solution on the surface of soil in 4½ inch (11.25 cm) plastic pots wherein seeds of the following weeds had been planted: tall morningglory (Ipomoea purpurea (L.) Roth) (TM), The percent control of the weeds compared to untreated checks was determined two weeks after treatment. TABLE 1 summarizes the results achieved with compounds formulated as indicated above, and the data clearly indicate the good to excellent herbicidal efficacy of compositions of this invention.

Experiment [2] has as its system barnyardgrass (Echinochloa crus-galli (L.) Beauv.) (BG). Kind of experiment: Preemergence herbicide test, soil drench, barnyardgrass. To be noted: two weeks after treatment. As to the method:
as §1, with “barnyardgrass (Echinochloa crus-galli” for “tall morningglory (Ipomoea purpurea”, “Beauv.) (BG), and” for “Roth) (TM),”

Experiment [3] has as its system green foxtail (Setaria virdis (L.) Beauv.) (GF). Kind of experiment: Preemergence herbicide test, soil drench, green foxtail. To be noted: two weeks after treatment. As to the method:
as §1, with “41⁄2” for “4½”, “green foxtail (Setaria […].) Beauv.) (GF).” for “tall morningglory (Ipomoea purpurea (L.) Roth) (TM),”

The test system of experiment [4] is switchgrass (Panicum virgahim L.) (SG). Kind of experiment: Preemergence herbicide test, soil drench, switchgrass. The note with it: two weeks after treatment. Here is the method: as §1, with “planted:” for “planted: tall morningglory (Ipomoea purpurea (L.) Roth) (TM), The percent control of the weeds compared to untreated checks was determined two weeks after treatment. TABLE 1 summarizes the results achieved with compounds formulated as indicated above, and the data clearly indicate the good to excellent herbicidal efficacy of compositions of this invention.”
switchgrass (Panicum virgahim L.) (SG),
(§2) The percent control of the weeds compared to untreated checks was determined two weeks after treatment. TABLE 1 summarizes the results achieved with compounds formulated as indicated above, and the data clearly indicate the good to excellent herbicidal efficacy of compositions of this invention.

In experiment [5] the test system is prickly sida (Sida spinosa L.) (PS). The experiment can be described thus: Preemergence herbicide test, soil drench, prickly sida. The note with it: two weeks after treatment. As to the method:
To illustrate the effectiveness of the previously described substituted oxadiazines of this invention as preemergence herbicides, 300 mg of the chemical was dissolved in a composition comprising 10 mL acetone to which 30 mg of tile emulsifying agent, ethoxylated sorbitan monolaurate, was added. The solution was diluted to 100 mL with distilled water. Ten milliliters of this 3000 ppm solution was diluted to 250 ppm with distilled water. […]
prickly sida (Sida spinosa L.) (PS),
as §2

Experiment [6] has as its system velvetleaf (Abutilon theophrasti Medik.) (VL). Kind of experiment: Preemergence herbicide test, soil drench, velvetleaf. To be noted: 10 lbs/A (11.2 kg/ha) soil drench, two weeks after treatment, vs untreated checks; for pest or weed control at 11208.5 g/ha: Abutilon theophrasti, 336 h, read-out: Percent Weed Control VL. As to the method: as §1, with “velvetleaf (Abutilon theophrasti Medik.) (VL),” for “tall morningglory (Ipomoea purpurea (L.) Roth) (TM),”

Where [7] appears, read: Echinochloa crus-galli, 336 h, 10 lbs/A (11.2 kg/ha) soil drench, vs untreated checks, read-out: Percent Weed Control BG.
The mark [8] stands for this setting: Setaria, 336 h, 10 lbs/A (11.2 kg/ha) soil drench, vs untreated checks, read-out: Percent Weed Control GF.
[9] abbreviates: Panicum, 336 h, 10 lbs/A (11.2 kg/ha) soil drench, vs untreated checks, read-out: Percent Weed Control SG.
Where [10] appears, read: Sida spinosa, 336 h, 10 lbs/A (11.2 kg/ha) soil drench, vs untreated checks, read-out: Percent Weed Control PS.
Where [11] appears, read: 10 lbs/A (11.2 kg/ha) soil drench, vs untreated checks.
Where [12] appears, read: 5 lbs/A (footnote for 32 and 33).

Structures are written as SMILES.

For `FC(F)(F)C1=NC(C(F)(F)F)(C(F)(F)F)N=C(c2ccccc2)O1` [Compound 1, 2-phenyl-4,4,6-tris(trifluoromethyl)-4H-1,3,5-oxadiazine], the pest or weed control at 11208.5 g/ha worked out at 100% in experiment [1]; 0% in experiment [2] (setting [7]); 0% in experiment [3] (setting [8]); 0% in experiment [4] (setting [9]); 100% in experiment [5] (setting [10]); 100% in experiment [6].
For `FC(F)(F)C1=NC(C(F)(F)F)(C(F)(F)F)N=C(c2ccc(Br)cc2)O1` [Compound 2, 2-(4-bromophenyl)-4,4,6-tris(trifluoromethyl)-4H-1,3,5-oxadiazine], the pest or weed control at 11208.5 g/ha in experiment [1], in experiment [2] (setting [7]), in experiment [3] (setting [8]), in experiment [4] (setting [9]), in experiment [5] (setting [10]) and in experiment [6] was 100% each time.
Consider `Fc1ccccc1C1=NC(C(F)(F)F)(C(F)(F)F)N=C(C(F)(F)F)O1` [Compound 3, 2-(2-fluorophenyl)-4,4,6-tris(trifluoromethyl)-4H-1,3,5-oxadiazine], for which the pest or weed control at 11208.5 g/ha in experiment [1] is 0%; in experiment [2] (setting [7]), 0%; in experiment [3] (setting [8]) it was 40%; in experiment [4] (setting [9]), 30%; in experiment [5] (setting [10]), 0%; in experiment [6] it was 100%.
`FC(F)(F)C1=NC(C(F)(F)F)(C(F)(F)F)N=C(c2cccc(C(F)(F)F)c2)O1` [Compound 7, 2,4,4-tris(trifluoromethyl)-6-{(3-trifluoromethyl)phenyl}-4H-1,3,5-oxadiazine]: in experiment [1], the “Percent Weed Control TM” value was 100%. The “Percent Weed Control BG” value in experiment [2] (setting [11]) came to 100%. Moreover, the “Percent Weed Control GF” value in experiment [3] (setting [11]) was found to be 100%. In experiment [4] (setting [11]), the “Percent Weed Control SG” value came to 100%. The “Percent Weed Control PS” value in experiment [5] (setting [11]) is given as 100%. Further, the “Percent Weed Control VL” value in experiment [6] is given as 100%.
With `FC(F)(F)Oc1ccc(C2=NC(C(F)(F)F)(C(F)(F)F)N=C(C(F)(F)F)O2)cc1` [Compound 8, 2-{4-(trifluoromethoxy)phenyl}-4,4,6-tris(trifluoromethyl)-4H-1,3,5-oxadiazine], the pest or weed control at 11208.5 g/ha in experiment [1], in experiment [2] (setting [7]), in experiment [3] (setting [8]), in experiment [4] (setting [9]), in experiment [5] (setting [10]) and in experiment [6] was 100% each time.
Consider `Nc1ccc(C2=NC(C(F)(F)F)(C(F)(F)F)N=C(C(F)(F)F)O2)cc1` [Compound 9, 2-(4-aminophenyl)-4,4,6-tris(trifluoromethyl)-4H-1,3,5-oxadiazine], for which the pest or weed control at 11208.5 g/ha in experiment [1] was 0%; in experiment [2] (setting [7]) it was 0%; in experiment [3] (setting [8]) it was 90%; in experiment [4] (setting [9]), 90%; in experiment [5] (setting [10]), 0%; in experiment [6] it was 90%.
Take `O=[N+]([O-])c1ccc(C2=NC(C(F)(F)F)(C(F)(F)F)N=C(C(F)(F)F)O2)cc1` [Compound 10, 2-(4-nitrophenyl)-4,4,6-tris(trifluoromethyl)-4H-1,3,5-oxadiazine]: the pest or weed control at 11208.5 g/ha is 50% in experiment [1]; 80% in experiment [2] (setting [7]); 80% in experiment [3] (setting [8]); 80% in experiment [4] (setting [9]); 80% in experiment [5] (setting [10]); 80% in experiment [6].
`FC(F)(F)C(F)(F)C1=NC(C(F)(F)F)(C(F)(F)F)N=C(c2ccccc2)O1` [Compound 11, 2-(pentafluoroethyl)-6-phenyl-4,4-bis(trifluoromethyl)-4H-1,3,5-oxadiazine]: the pest or weed control at 11208.5 g/ha in experiment [1] was 100%; in experiment [2] (setting [7]) it was 0%; in experiment [3] (setting [8]), 50%; in experiment [4] (setting [9]) it was 0%; in experiment [5] (setting [10]) it was 100%; in experiment [6] it was 100%.
As to `O=Cc1ccc(C2=NC(C(F)(F)F)(C(F)(F)F)N=C(C(F)(F)C(F)(F)F)O2)cc1` [Compound 31, 4-{6-(pentafluoroethyl)-4,4-bis(trifluoromethyl)-4H-1,3,5-oxadiazin-2-yl}-benzaldehyde], the pest or weed control at 11208.5 g/ha in experiment [2] (setting [7]) turned out to be 100%.
In the case of `FC(F)C1=NC(C(F)(F)F)(C(F)(F)F)N=C(c2cccc(C(F)(F)F)c2)O1` [Compound 32, 2-(difluoromethyl)-4,4-bis(trifluoromethyl)-6-(3-trifluoromethylphenyl)-4H-1,3,5-oxadiazine], the pest or weed control at 5604.25 g/ha was 80% in experiment [2] (Echinochloa crus-galli, pre-emergence, 336 h, 5 lbs/A (footnote for 32 and 33), read-out: Percent Weed Control BG); 100% in experiment [3] (Setaria, pre-emergence, 336 h, 5 lbs/A (footnote for 32 and 33), read-out: Percent Weed Control GF); 0% in experiment [4] (Panicum, pre-emergence, 336 h, 5 lbs/A (footnote for 32 and 33), read-out: Percent Weed Control SG); 100% in experiment [5] (Sida spinosa, pre-emergence, 336 h, 5 lbs/A (footnote for 32 and 33), read-out: Percent Weed Control PS).
In the case of `FC(F)C1=NC(C(F)(F)F)(C(F)(F)F)N=C(c2ccc(C(F)(F)F)cc2)O1` [Compound 33, 21-(dfluoromethyl)-4,4-bis(trifluoromethyl)-6-(4-trifluoromethylphenyl)-4H-1,3,5-oxadiazine], in experiment [2] (setting [12]), the “Percent Weed Control BG” value was 20%. Also, in experiment [3] (setting [12]), the “Percent Weed Control GF” value stood at 40%. For the same compound, the “Percent Weed Control PS” value in experiment [5] (setting [12]) was 100%.
